≈ marks a conversion by molar mass, not a printed value. Where two headings read alike, the source gives them in different places.
How the values were obtained:
E. coli DNA gyrase = E. coli DNA gyrase (Escherichia coli, UniProt P0AES6); assay: E. coli DNA gyrase supercoiling inhibitory assay; assay type: biochemical
Experimental: The fluorescence was measured with a microplate reader (BioTek Synergy H4,
NaCl and 50 mM MgCl2) was added to terminate the enzymatic reaction. After
Initial screening was done at 100 or 10 μM concentration

E. coli (ATCC BAA-196) = assay: Antibacterial assay against multi-drug resistant strains (MIC/MBC); assay type: cell-based, Escherichia coli; conditions: for MBC: ATCCBAA196
DHFR E. Coli = DHFR E. Coli (Escherichia coli, UniProt P0ABQ4); assay: DHFR inhibitory assay; assay type: biochemical; conditions: read-out: IC50 DHFR E. Coli
E. coli = assay: MIC/MBC assay, twofold serial dilution; assay type: cell-based, Escherichia coli; conditions: for MBC: read-out: MBC
Experimental: (§1) The results of this in vitro assay test are consistent with the findings of the antimicrobial sensitivity test. […] It has lower antimicrobial activity than ciprofloxacin against all pathogens tested.
(§2) The MBC differs from the MIC. […]
(§3) 4.2.2. Minimum inhibitory concentration assay
(§4) In 96-well microtiter plates and […] of fresh bacterial culture of a single McFarland unit overnight, a double serial dilution of each compound […] in sterile standard saline were prepared to every single source well. Ciprofloxacin antibiotic (5 mg / mL - 1) and normal saline were included as standard reference in each assay. The plates were incubated at 37 0C overnight. As an indicator of bacterial growth, […] of p-iodonitrotetrazolium violet (INT) was added to each well and incubated at 37 0C for 30 […]
(§5) min. MIC values are recorded as the lowest concentration of the extract that completely inhibited bacterial growth that is clear well. The colorless tetrazolidium salt acts as an electron accepter and is reduced to a red colored formazan product by biological activity organisms. Where bacterial growth was inhibited, the solution in the well remained clear after incubation with INT. […]

P. aeruginosa = assay: MIC/MBC assay, twofold serial dilution; assay type: cell-based, Pseudomonas aeruginosa
Experimental: as §1, §2, §3, §4, §5

S. aureus = assay: MIC/MBC assay, twofold serial dilution; assay type: cell-based, Staphylococcus aureus
Experimental: as §1, §2, §3, §4, §5

S. aureus biofilm = assay: Antibiofilm assay, microtiter plate biofilm quantification
Experimental: Microtiter plate assay for biofilm quantification
The effect of sample on biofilm formation was evaluated in 96-well polystyrene
flatbottom plates. Briefly, 300 𝜇L of inoculated fresh trypticase soy yeast broth (TSY)
Wells containing medium and those without
extracts and only with methanol were used as controls. Plates were incubated at 37∘C
for 48h. After incubation, supernatant was removed and each well was washed
thoroughly with sterile distilled water to remove free-floating cells; thereafter plates
were air-dried for 30min, and the biofilm formed was stained during 15 min at room
temperature with 0.1% aqueous solution of crystal violet. Following incubation, the
excess of stain was removed by washing the plate three times with sterile distilled water.
each well and after 15min of incubation, absorbance was measured using microplate
reader at a wavelength of 570 nm.
Biofilm inhibition ability of sample=(1- (absorb. sample - absorb. Blank))/
(absorb. control - absorb. Blank))*100

Gram-positive bacteria = assay: MBC assay, Gram-positive bacteria together; assay type: cell-based; conditions: Gram-positive bacteria (B. subtilis, S. aureus)
Source text: The MBC differs from the MIC.

[1] = test system: S. aureus (ATCC 43300) (MRSA); assay: Antibacterial assay against multi-drug resistant strains (MIC/MBC); assay type: cell-based, Staphylococcus aureus; conditions: for MBC / MIC: S. aureus ATCC 43300 (MRSA)
[2] = test system: P. aeruginosa (ATCC BAA-2111); assay: as above; assay type: cell-based, Pseudomonas aeruginosa; conditions: for MBC: ATCCBAA2111
A. flavus = assay: Antifungal assay (MIC/MFC), twofold serial dilution; conditions: for MIC: A. flavus
C. albicans = assay: as above
[3] = Cell viability assay (MTT); assay type: cell-based; conditions: human, MCF-10A cells (normal mammary gland epithelial cell line), 4-day incubation
Experimental: The vitality of the investigated compounds was assessed using the MCF-10A cell line, which is a normal human mammary gland epithelial cell line. Following a 4-day incubation period on MCF-10A cells with a concentration of 50 µM for each compound being studied, the viability of the cells was assessed using the MTT test ([Hisham et al., 2022]; [Mahmoud et al., 2022]).
4.2.3. Cell Viability assay
MTT assay was carried out to study the effect of compounds on mammary epithelial cells (MCF-10A). The medium in which cells were propagated contained Dulbecco's modified Eagle's medium (DMEM)/ Ham's F-12 medium (1:1) supplemented with epidermal growth factor (20 ng/mL), hydrocortisone (500 ng/mL), insulin (10 μg/mL), 2 mM glutamine and 10% fetal calf serum. After every 2-3 days, the cells were passaged using trypsin ethylenediamine tetra acetic acid (EDTA). The cells were seeded at a density of 10^4 cells mL-1 in flat-bottomed culture plates containing 96 wells each. After 24 h, medium was removed from the plates and the compounds in (in 0.1% DMSO) were added (in 200 μL medium to yield a final concentration of 0.1% v/v) to the wells of plates. A single compound was designated with four wells followed by incubation of plates for 96h at 37°C. After incubation, medium was removed completely from the plates followed by addition of MTT (0.4 mg/mL in medium) to each well and subsequent incubation of plates for 3h. MTT (along with the medium) was removed and DMSO (150μL) was added to each well of the culture plates, followed by vortexing and subsequent measurement of absorbance (at 540 nm) using microplate reader. The data are shown as percentage inhibition of proliferation in comparison with controls

B. subtilis = assay: MIC/MBC assay, twofold serial dilution; assay type: cell-based, Bacillus subtilis
Experimental: as §1, §2, §3, §4, §5

[4] = Escherichia coli, ATCCBAA196, read-out: MIC
[5] = Escherichia coli, read-out: MIC
[6] = Pseudomonas aeruginosa, read-out: MBC
[7] = Pseudomonas aeruginosa, read-out: MIC
[8] = Staphylococcus aureus, read-out: MBC
[9] = Staphylococcus aureus, read-out: MIC
[10] = Pseudomonas aeruginosa, ATCCBAA2111, read-out: MIC
[11] = Bacillus subtilis, read-out: MBC
[12] = Bacillus subtilis, read-out: MIC

DHFR E. Coli, sequence (P0ABQ4 whole entry): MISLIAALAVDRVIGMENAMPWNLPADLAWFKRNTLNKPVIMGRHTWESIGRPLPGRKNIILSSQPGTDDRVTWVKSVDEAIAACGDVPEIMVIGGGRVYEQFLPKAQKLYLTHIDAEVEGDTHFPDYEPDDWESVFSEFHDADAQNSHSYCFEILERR

**Q.** With O=C1Nc2ccc(Cl)cc2/C1=N/NC(=O)c1cc(Cc2ccc(O)c(C(=O)N/N=C3\C(=O)Nc4ccc(Cl)cc43)c2)ccc1O [Compound 6h] as the molecule, how does the “Potency relative to novobiocin against DNA gyrase” value (E. coli DNA gyrase) read?
**A.** twice as potent as novobiocin

**Q.** What about the IC50 (E. coli DNA gyrase; read-out: IC50 E. Coli DNA gyrase) of the same molecule?
**A.** 79 ± 5 nM

**Q.** What about the MIC (E. coli (ATCC BAA-196)) of the same molecule?
**A.** 1.90 ± 0.10 µM (≈ 1.22 µg/mL)

**Q.** What about the MBC (E. coli (ATCC BAA-196); Escherichia coli) of the same molecule?
**A.** 3.7 ± 0.2 µM (≈ 2.38 µg/mL)

**Q.** And the MIC (E. coli (ATCC BAA-196); [4])?
**A.** 1.9 µM (≈ 1.22 µg/mL)

**Q.** What about the IC50 (DHFR E. Coli) of the same molecule?
**A.** 3800 ± 100 nM

**Q.** What about the MIC (E. coli) of the same molecule?
**A.** 0.054 ± 0.003 µM (≈ 0.0347 µg/mL)

**Q.** And the MBC (E. coli; Escherichia coli)?
**A.** 0.074 ± 0.006 µM (≈ 0.0476 µg/mL)

**Q.** What about the MIC (E. coli; [5]) of the same molecule?
**A.** 0.054 µM (≈ 0.0347 µg/mL)

**Q.** And the MBC (P. aeruginosa)?
**A.** 0.074 ± 0.005 µM (≈ 0.0476 µg/mL)

**Q.** What about the MIC (P. aeruginosa) of the same molecule?
**A.** 0.055 ± 0.004 µM (≈ 0.0354 µg/mL)

**Q.** What about the MBC (P. aeruginosa; [6]) of the same molecule?
**A.** 0.074 µM (≈ 0.0476 µg/mL)

**Q.** And the MIC (P. aeruginosa; [7])?
**A.** 0.055 µM (≈ 0.0354 µg/mL)

**Q.** What about the MBC (S. aureus) of the same molecule?
**A.** 0.028 ± 0.001 µM (≈ 0.018 µg/mL)

**Q.** And the MIC (S. aureus)?
**A.** 0.019 ± 0.001 µM (≈ 0.0122 µg/mL)

**Q.** And the “Times more effective than ciprofloxacin (MIC)” value (S. aureus)?
**A.** 1.5 times

**Q.** And the MBC (S. aureus; [8])?
**A.** 0.028 µM (≈ 0.018 µg/mL)

**Q.** What about the MIC (S. aureus; [9]) of the same molecule?
**A.** 0.019 µM (≈ 0.0122 µg/mL)

**Q.** What about the Biofilm inhibition % (S. aureus biofilm; 1/2 MIC of 6h (S. aureus ATCC 43300)) of the same molecule?
**A.** 87.66%

**Q.** And the Biofilm inhibition % (S. aureus biofilm; 1/2 MIC of 6h (S. aureus ATCC 43300), listed as 6 h)?
**A.** 88%

**Q.** And the Biofilm inhibition % (S. aureus biofilm; 1/4 of MIC of 6h (S. aureus ATCC 43300))?
**A.** 64.10%

**Q.** What about the Biofilm inhibition % (S. aureus biofilm; 1/4 of MIC of 6h (S. aureus ATCC 43300), listed as 6 h) of the same molecule?
**A.** 64%

**Q.** What about the Biofilm inhibition % (S. aureus biofilm; MIC of 6h (S. aureus ATCC 43300)) of the same molecule?
**A.** 96.95%

**Q.** What about the Biofilm inhibition % (S. aureus biofilm; MIC of 6h (S. aureus ATCC 43300), listed as 6 h) of the same molecule?
**A.** 97%

**Q.** What about the MBC (Gram-positive bacteria) of the same molecule?
**A.** 0.028 to 0.058 µM (≈ 0.018 to 0.0373 µg/mL)

**Q.** And the “Times more potent than norfloxacin (MBC)” value ([1]; MRSA strain S. aureus ATCC 43300)?
**A.** around 1.2 times

**Q.** And the MBC [1]?
**A.** 3.20 ± 0.15 µM (≈ 2.06 µg/mL)

**Q.** What about the MIC [1] of the same molecule?
**A.** 1.70 ± 0.10 µM (≈ 1.09 µg/mL)

**Q.** And the MBC [1, 8]?
**A.** 3.9 µM (≈ 2.51 µg/mL)

**Q.** What about the MIC [1, 9] of the same molecule?
**A.** 1.7 µM (≈ 1.09 µg/mL)

**Q.** And the MIC [2]?
**A.** 3.40 ± 0.20 µM (≈ 2.19 µg/mL)

**Q.** What about the MBC ([2]; Pseudomonas aeruginosa) of the same molecule?
**A.** 5.8 ± 0.3 µM (≈ 3.73 µg/mL)

**Q.** And the MIC [2, 10]?
**A.** 3.4 µM (≈ 2.19 µg/mL)

**Q.** What about the MIC (A. flavus) of the same molecule?
**A.** 14.50 µM (≈ 9.33 µg/mL)

**Q.** What about the MIC (A. flavus; listed as 6 h) of the same molecule?
**A.** 14.50 ± 1 µM (≈ 9.33 µg/mL)

**Q.** What about the MFC (A. flavus; Aspergillus flavus) of the same molecule?
**A.** 28.5 ± 1 µM (≈ 18.3 µg/mL)

**Q.** And the MIC (A. flavus; Aspergillus flavus)?
**A.** 14.5 to 19.5 µM (≈ 9.33 to 12.5 µg/mL)

**Q.** What about the MIC (C. albicans; C. albicans) of the same molecule?
**A.** 18.20 ± 1 µM (≈ 11.7 µg/mL)

**Q.** And the MFC (C. albicans; Candida albicans)?
**A.** 36.5 ± 2 µM (≈ 23.5 µg/mL)

**Q.** And the MIC (C. albicans; Candida albicans)?
**A.** 18.2 µM (≈ 11.7 µg/mL)

**Q.** And the viability at 96 h, 50 µM [3]?
**A.** 93%

**Q.** What about the MBC (B. subtilis) of the same molecule?
**A.** 0.038 ± 0.002 µM (≈ 0.0245 µg/mL)

**Q.** And the MIC (B. subtilis)?
**A.** 0.024 ± 0.002 µM (≈ 0.0154 µg/mL)

**Q.** What about the “Times less effective than ciprofloxacin (MIC)” value (B. subtilis) of the same molecule?
**A.** 2.5 times

**Q.** And the MBC (B. subtilis; [11])?
**A.** 0.038 µM (≈ 0.0245 µg/mL)

**Q.** What about the MIC (B. subtilis; [12]) of the same molecule?
**A.** 0.024 µM (≈ 0.0154 µg/mL)

**Q.** What does the source list for Cc1ccc2c(c1)/C(=N/NC(=O)c1cc(Cc3ccc(O)c(C(=O)N/N=C4\C(=O)Nc5ccc(C)cc54)c3)ccc1O)C(=O)N2 [Compound 6j]?
**A.** IC50 (E. coli DNA gyrase): 117 ± 8 nM; MBC (E. coli (ATCC BAA-196); Escherichia coli): 6.1 ± 0.25 µM (≈ 3.68 µg/mL); MIC (E. coli (ATCC BAA-196); [4]): 3.9 ± 0.15 µM (≈ 2.35 µg/mL); IC50 (DHFR E. Coli): 5100 ± 200 nM; MBC (E. coli; Escherichia coli): 0.081 ± 0.006 µM (≈ 0.0488 µg/mL); MIC (E. coli; [5]): 0.062 ± 0.004 µM (≈ 0.0374 µg/mL); MBC (P. aeruginosa): 0.08 ± 0.006 µM (≈ 0.0482 µg/mL); MBC (P. aeruginosa; [6]): 0.08 µM (≈ 0.0482 µg/mL); MIC (P. aeruginosa; [7]): 0.061 ± 0.005 µM (≈ 0.0368 µg/mL); MBC (S. aureus): 0.04 ± 0.002 µM (≈ 0.0241 µg/mL); MIC (S. aureus): 0.025 ± 0.002 µM (≈ 0.0151 µg/mL); MBC (S. aureus; [8]): 0.04 µM (≈ 0.0241 µg/mL); MIC (S. aureus; [9]): 0.025 µM (≈ 0.0151 µg/mL); MBC (Gram-positive bacteria): 0.028 to 0.058 µM (≈ 0.0169 to 0.035 µg/mL); MBC [1, 8]: 5.9 ± 0.25 µM (≈ 3.56 µg/mL); MIC [1, 9]: 3.2 ± 0.15 µM (≈ 1.93 µg/mL); MBC ([2]; Pseudomonas aeruginosa): 7.8 ± 0.3 µM (≈ 4.7 µg/mL); MIC [2, 10]: 5.6 ± 0.25 µM (≈ 3.37 µg/mL); MIC (A. flavus): 16.90 ± 1 µM (≈ 10.2 µg/mL); MFC (A. flavus; Aspergillus flavus): 33.9 ± 2 µM (≈ 20.4 µg/mL); MIC (A. flavus; Aspergillus flavus): 14.5 to 19.5 µM (≈ 8.74 to 11.8 µg/mL); MFC (C. albicans; Candida albicans): 41.5 ± 3 µM (≈ 25 µg/mL); MIC (C. albicans; Candida albicans): 20.7 ± 1 µM (≈ 12.5 µg/mL); viability at 96 h, 50 µM [3]: 92%; MBC (B. subtilis): 0.047 ± 0.002 µM (≈ 0.0283 µg/mL); MBC (B. subtilis; [11]): 0.047 µM (≈ 0.0283 µg/mL); MIC (B. subtilis; [12]): 0.031 ± 0.002 µM (≈ 0.0187 µg/mL)
